Test results: patent US8748097B1, “Identification of agents for treating calcium disorders and uses thereof” (President and Fellows of Harvard College, priority 2011, dated 2014)
Like-named read-outs stand apart in the source and are kept apart here.

Experiments:
[1] = tested on: alkaline phosphatase (ALPL); conditions: TBONE deficient cells vs GFP control; 10 nM Alendronate
Method: (§1) Briefly, GFP control and TBONE knockdown cells were generated and subjected to differentiation as described above. Following the two week incubation, cells were treated with 10 nM Alendronate (exemplary NBP) or vehicle and analyzed by real-time RT-PCR using TBONE, OC and BSP gene specific oligonucleotide primers (FIG. 15). Alkaline phosphatase activity was measured using a colorimetric based assay designed to indicate ALPL activity by changing color following the dephosphorylation of p-nitrophenyl phosphate (pNPP) (FIG. 16).

KBM7 cells = tested on: KBM7 cells
Method: (§2) All measurements were performed in quadruplicate.
as §2

[2] = biological target: HA tagged C2orf28 variant 2 (Homo sapiens, UniProt Q6UW56); conditions: MC3T3-E1 pre-osteoblasts expressing HA tagged C2orf28 variant 2; 7504 fluorophore conjugated Alendronate
Method: Sub-cellular Localization. […] Cells were processed in an immunofluorescence assay.
Following incubation, the cells were washed, and processed in an immunofluorescence assay to detect HA and Alendronate, along with DAPI to visualize DNA content.
25,000-100,000 cells were plated on fibronectin-coated glass coverslips, fixed with 4% paraformaldehyde, and permeabilized with 0.2% Triton X-100. Permeabilized cells were blocked in 0.25% BSA PBS, incubated with primary antibody in blocking buffer overnight at 4° C. and subsequently incubated with secondary antibodies (diluted in blocking buffer 1:1000) for one hour at room temperature. 2-4×PBS washes were used in between all preceding steps. The coverslips were mounted on glass slides using Vectashield containing DAPI (Vector Laboratories) and imaged with 63× objective using epifluorescence microscopy.

Rapla prenylation = conditions: indicated dose of Alendronate, 72 hours
Method: (§3) FIG. 8. Effect of Nitrogenous Bisphosphonates on Prenylation. Cells containing (WT) or lacking C2orf28 (C2orf28_GT2) were treated with Alendronate at the indicated dose ((−) indicates no Alendronate). After 72 hours the cells were analyzed by immunoblotting for the indicated proteins.
(§4) Therefore, to determine whether C2orf28 is involved with NBPs mediated protein prenylation, the inventors' monitored the prenylation of several known prenylated proteins including the heat shock protein DnaJ (Hsp40) homolog, HDJ-2, and the Ras family GTPase, Rapla. Cells containing or lacking C2orf28 were treated with the indicated dose of Alendronate for 72 hours then lysed and analyzed by immunoblotting for the indicated proteins.
(§5) Cells were pelleted by centrifugation at 9,000 rpm for 30 seconds, rinsed once with ice-cold PBS and lysed with Triton-X 100 containing lysis buffer (40 mM HEPES [pH 7.4], 2 mM EDTA, 150 mM NaCl, 50 mM NaF, 1% Triton-X 100, and one tablet of EDTA-free protease inhibitors [Roche] per 25 ml). The soluble fractions of cell lysates were isolated by centrifugation at 13,000 rpm for 10 minutes in a microcentrifuge. Lysate protein concentrations were normalized by Bradford assay (Bio-Rad). Proteins were then denatured by the addition of sample buffer and by boiling for 5 minutes, resolved using 4%-20% SDS-PAGE (Invitrogen), and analyzed by immunoblotting.

HDJ-2 prenylation = conditions: indicated dose of Alendronate, 72 hours
Method: as §3, §4, §5

MC3T3-e1 cells = tested on: MC3T3-e1 cells
Method: FIG. 15. Basal and NBP-potentiated osteoblastic gene expression. shNA-mediated TBONE knockdown (TBONE—1 and TBONE—2) and transfection control (GFP) cells were treated with 10 nM Alendronte or vehicle and analyzed using real-time RT-PCR for mRNA expression of (A) TBONE, (B) osteocalcin (OC), and (C) bone sialoprotein (BSP).
Since NBPs and calcium potentially play an important role in regulating osteoblast function, studies were performed to evaluate the role of TBONE in osteoblast differentiation. For the experiment, wild-type and GFP positive MC3T3-e1 cells were transiently transfected with small-hairpin RNA (shRNA). GFP positive cells were treated with a shRNA designed to target and disrupt GFP expression (transfection control), while wild-type cells were treated with one of two shRNA constructs (TBONE—1 and TBONE—2) designed to target and disrupt expression of Apr3. The cells were then subjected to conditions for promoting osteoblast differentiation, 50 μg/ml ascorbic acid and 10 mM B-glycerophosphate for 2 weeks, and analyzed for extracellular calcium deposition using Alizarin Red or phosphate deposition using the Von Kossa method.
as §1

[3] = tested on: cells containing or lacking C2orf28; conditions: C2orf28 deficient vs C2orf28-complemented cells; 75 μM fluorophore conjugated H^3-labeled Alendronate plus 60 μM cold, 60 hours
Method: The volume was made up to 1 ml with distilled water and the solution incubated for 2 hours at room temperature with mixing.

[4] = tested on: RANKL mRNA in ST-2 osteoblast cells
Method: (§6) GFP positive cells were treated with a shRNA designed to target and disrupt GFP expression (transfection control), while wild-type cells were treated with one of two shRNA constructs (TBONE—1 and TBONE—2) designed to target and disrupt expression of Apr3.

RAW 264.7 macrophages [5] = tested on: RAW 264.7 macrophages
Method: as §6

HEK-293T = HEK-293T with C2orf28 depletion using RNAi; data not shown
NFATc1 mRNA = experiment: A23187-induced NFATc1 expression; assay type: cell-based; conditions: C2orf28 deficient cells vs control; 1 μM A23187, 12 hours
Method: FIG. 13. A23187-induced NFATc1 Expression. Control and C2orf28 deficient cells were treated for 12 hours with 1 μM A23187. After 12 hours, relative levels of NFATc1 mRNA expression were measured.
Total RNA was isolated and reverse-transcription was performed from cells grown in the indicated conditions. The resulting cDNA was diluted in DNase-free water (1:20) followed by quantification by real-time PCR. Data is expressed as the ratio between the expression of the target gene to the housekeeping gene, 18s. Each treated sample was normalized to the level of the vehicle controls of the same cell type. The following primers were used for quantitative real-time PCR: […]

RAW 264.7 macrophages [6] = experiment: RANKL-mediated induction of TRAP activity in RAW 264.7 macrophages; assay type: cell-based; conditions: TBONE knockdown RAW 264.7 macrophages; 50 ng/ml RANKL, 5 days
Excerpt: In order to determine if TBONE plays a role in directly regulating osteoclastogensis, TBONE was knockdown in macrophages to evaluate its potential effect on RANKL stimulated differentiation; by monitoring lineage specific surface marker expression of the calcitonin receptor (CALCR), a well-established indicator of osteoclast activity (J. Lam et al., (2000) J Clin Invest: 106, 1481; D. L. Lacey et al., (1998), Cell: 93, 165; and C. Minkin, (1982), Calcif Tissue Int: 34, 285; all of which are hereby incorporated by reference). Briefly, wild-type and GFP positive RAW 264.7 macrophages cells were transiently transfected with shRNA to knockdown GFP and Arp3 as described above. The cells were treated with 50 ng/ml RANKL for 5 days. […] Second, cells were analyzed for tartrate-resistant acid phosphatase (TRAP) activity.

[7] = C2orf28 deficient cells (C2orf28_GT2)
[8] = TBONE deficient cells vs GFP control, 10 nM Alendronate

Chain of HA tagged C2orf28 variant 2 (Q6UW56 1-284 isoform Q6UW56-3): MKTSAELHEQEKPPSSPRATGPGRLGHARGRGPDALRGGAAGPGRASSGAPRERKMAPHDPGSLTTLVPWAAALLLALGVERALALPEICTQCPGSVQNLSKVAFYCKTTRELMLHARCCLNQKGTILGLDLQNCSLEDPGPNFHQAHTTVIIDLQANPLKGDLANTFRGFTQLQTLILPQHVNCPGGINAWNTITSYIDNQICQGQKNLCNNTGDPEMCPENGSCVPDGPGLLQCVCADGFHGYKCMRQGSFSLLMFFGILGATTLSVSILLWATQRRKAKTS

For `NCCCC(O)(P(=O)(O)O)P(=O)(O)O` [Alendronate], the “NBP-stimulated ALPL (alkaline phosphatase activity)” value [1] was “fail to demonstrate an increase in basal or NBP-stimulated gene expression”, the “Cell viability (cellular ATP, ratio to untreated cells)” value (KBM7 cells; C2orf28_GT2 cells expressing C2orf28 variant 2 lacking the transmembrane domain, 0, 60 or 9004, 72 hours) was “resistant” and the “Cell viability (cellular ATP, ratio to untreated cells)” value (KBM7 cells; C2orf28_GT2 cells expressing full-length C2orf28 variant 2, 0, 60 or 9004, 72 hours) was “sensitive”. The “Cell viability (cellular ATP, ratio to untreated cells)” value (KBM7 cells; C2orf28 mutant cells with exogenous C2orf28 variant 2 or variant 3, 60 μM, 72 hours) was “as sensitive to Alendronate as wild-type KBM7 cells”, the “Colocalization of Alendronate and C2orf28 co-staining” value [2] was “high degree of colocalization” and the Rapla prenylation (Rapla prenylation; [7]) was “no effect”. For the same molecule, the Rapla prenylation (Rapla prenylation; cells containing C2orf28 (WT)) was “impaired both HDJ-2 and Rapla prenylation in a dose dependent manner”, the HDJ-2 prenylation (HDJ-2 prenylation; [7]) was “no effect” and the HDJ-2 prenylation (HDJ-2 prenylation; cells containing C2orf28 (WT)) was “impaired both HDJ-2 and Rapla prenylation in a dose dependent manner”. For the same molecule, the “Relative TBONE mRNA expression” value (MC3T3-e1 cells; GFP control cells, 10 nM Alendronate vs vehicle) was “increase in relative TBONE expression”, the “NBP-stimulated gene expression of bone sialoprotein (BSP)” value (MC3T3-e1 cells; [8]) was “fail to demonstrate an increase in basal or NBP-stimulated gene expression” and the “NBP-stimulated gene expression of osteocalcin (OC)” value (MC3T3-e1 cells; [8]) was “fail to demonstrate an increase in basal or NBP-stimulated gene expression”. The “NBP-stimulated induction of TBONE mRNA” value (MC3T3-e1 cells; TBONE knockdown cells (TBONE—1 and TBONE—2), 10 nM Alendronate) was “fail to demonstrate a NBP-stimulated induction of TBONE”, the “Cellular Alendronate accumulation” value [3] was “altered cellular Alendronate accumulation” and the “RANKL mRNA induction by Vitamin D” value ([4]; wild-type ST-2 cells, 100 nM Vitamin D plus increasing concentration of Alendronate, vs control) was “impaired RANKL mRNA induction by Vitamin D, in a dose dependent fashion”. The “Vitamin D stimulated osteoclastogenesis (TRAP activity)” value (RAW 264.7 macrophages [5]; ST-2 cells treated with 100 nM Vitamin D and Alendronate, co-cultured with RAW 264.7 macrophages) was “reduced TRAP activity” and the Anti-proliferative effects (HEK-293T) was “strong resistance”.

With `CNc1ccc2oc(C[C@H]3O[C@@]4(CC[C@H]3C)O[C@H]([C@H](C)C(=O)c3ccc[nH]3)[C@H](C)C[C@H]4C)nc2c1C(=O)O` [A23187] the “A23187-induced NFATc1 gene expression” value (NFATc1 mRNA) was “defective”.

Vitamin D was tested, and the “RANKL mRNA induction by Vitamin D” value ([4]; TBONE knockdown ST-2 cells (TBONE—1 and TBONE—2) vs GFP control, 100 nM Vitamin D) was “impaired RANKL mRNA induction” and the “Vitamin D stimulated osteoclastogenesis (TRAP activity)” value (RAW 264.7 macrophages [5]; TBONE knockdown ST-2 cells co-cultured with RAW 264.7 macrophages, 100 nM Vitamin D) was “largely blocked”.

B1: RANKL: regulatory molecule stimulating osteoclast differentiation and function (protein, UniProt O14788 140-317, looked up)
Tumor necrosis factor ligand …: IRAEKAMVDGSWLDLAKRSKLEAQPFAHLTINATDIPSGSHKVSLSSWYHDRGWAKISNMTFSNGKLIVNQDGFYYLYANICFRHHETSGDLATEYLQLMVYVTKTSIKIPSSHTLMKGGSTKYWSGNSEFHFYSINVGGFFKLRSGEEISIEVSNPSLLDPDQDATYFGAFKVRDID
B1 was tested, and the “RANKL-mediated TRAP activity” value (RAW 264.7 macrophages [6]) was “strongly impairs”.
